# Test results published in patent publication US10973815B2, “Delta opioid agonist mu opioid antagonist compositions and methods for treating Parkinsons disease” (priority 2016, dated 2021).
# Entries after “also recorded” stand apart in the source; their conditions may differ.
# Assays:
# [1] = system: L-DOPA naïve MPTP-lesioned macaques; assay: Monotherapy with Formula (i) in L-DOPA naïve MPTP-lesioned macaques; assay type: in vivo, Macaca fascicularis
# Description: This activity is measured by an infra-red movement detector and captures all movement, normal and abnormal. MPTP-lesioned cynomolgus monkeys received acute oral administration of either vehicle or Formula (i) (1, 10 or 20 mg/kg) according to a randomized incomplete Latin Square-type. Levels of activity were assessed every minute over the entire 6 h observation. […] (FIG. 1A; time-course) or cumulated shown in FIG. 1B for 0-3 h; or FIG. 1C for 3-6 hr. N=8 for all treatment groups. */**/*** represents P<0.05, P<0.01 or P<0.001 cf. vehicle-treatment; 2-way RM ANOVA (FIG. 1A) or 1-way RM-ANOVA with Holm-Sidak's Multiple Comparison test (FIGS. 1B and C) (ns—not significant).
# MPTP-lesioned cynomolgus monkeys received acute oral administration of either vehicle or Formula (i) (1, 10 or 20 mg/kg) according to a randomized incomplete Latin Square-type. Levels of bradykinesia were assessed every 10 min over the entire 6 h observation and total duration of ON-time (minutes for which bradykinesia was absent) was calculated. Data are mean±s.e.m. N=8 for all treatment groups. All P>0.05, cf vehicle-treatment; 1-way, RM-ANOVA with Holm-Sidak's Multiple Comparison test.
# Parkinsonian disability is scored by a trained neurologist who is blinded to treatment allocation but is trained to differentiate normal from abnormal movements and is able to distinguish diminution of Parkinsonian disability from dyskinetic (abnormal) movements. MPTP-lesioned cynomolgus monkeys received acute oral administration of either vehicle or Formula (i) (1, 10 or 20 mg/kg) according to a randomized incomplete Latin Square-type. Levels of parkinsonian disability were assessed every 10 min over the entire 6 h observation. […] N=8 for all treatment groups. */P<0.05 cf. vehicle-treatment; 2-way RM ANOVA of ranked data (FIG. 5A) or 1-way RM-ANOVA with Holm-Sidak's Multiple Comparison test (FIGS. 5B and C).
# Eight cynomolgus monkeys (Macaca fascicularis, 6.4-6.8 years of age, 2.8-4.2 kg were used in this study. Animals were housed two or three per cage in the same housing room. The housing rooms were subject to a 12 hour light-dark cycle (lights on 7 a.m.), temperature 20-25° C. in a room containing only animals of the same sex. Fresh fruit, primate pellets and water were available ad libitum other than at times of overnight fasting prior to PK or behavioral assessment days.
# The animals were rendered parkinsonian via once-daily subcutaneous injection of MPTP (0.2 mg/kg), administered for between 9 and 12 days, until the appearance of parkinsonism symptoms. After this time, a parkinsonian syndrome reached a moderate to marked level, over approximately 30 days, and stabilized. […] L-DOPA naïve animals have received no L-DOPA and those showing established motor complication have received L-DOPA in an amount 25 mg/kg orally twice daily for at least 2 months. L-DOPA is given with the decarboxylase inhibitor benserazide (as Madopar™).
# [2] = Oral bioavailability in macaques; set-up: species or system Macaca fascicularis; settings: cynomolgus monkey, in vivo
# Source text: ON-time represents lack of bradykinesia so mere improvement in bradykinesia would not be reflected in changes in ON-time. The oral bioavailability of the drug in these animals was only 1-2% so the lack of effect on ON-time is likely due to inadequate systemic exposure levels. Higher systemic levels of the drug may have a more profound effect on bradykinesia and which could translate into changes in ON-time.
# [3] = 1, 10 or 20 mg/kg oral, Friedman test
# [4] = any dose assessed (1, 10, 20 mg/kg oral)
smiles,measurement,setting,value
"CCN(CC)C(=O)c1ccc(C(c2cccc(O)c2)N2C[C@@H](C)N(Cc3cccc(F)c3)C[C@@H]2C)cc1 (stereo partly drawn) [DPI-289, 4-((alpha-R)-alpha-((2S,5R)-2,5-Dimethyl-4-(3-fluorobenzyl)-1-piperazinyl)-3-hydroxybenzyl)-N,N-diethylbenzamide]",total duration of ON-time (mean),"[1]; 1 mg/kg oral, 6 h observation",46 ± 48 min
same,postural impairment level,"[1]; 10 mg/kg oral, 1-2 h period of observation (2-3 h after treatment), P<0.01 cf. vehicle",absent-mild levels
same,increase in activity counts cf. vehicle,"[1]; 10 mg/kg oral, 1-2 h period of observation (2-3 h after treatment), P<0.05",62%
same,parkinsonian disability level,"[1]; 10 mg/kg oral, 1-2 h period of observation (2-3 h after treatment), P<0.05 cf. vehicle (mild-moderate levels)",absent-mild levels
same,total duration of ON-time (mean),"[1]; 10 mg/kg oral, 6 h observation",49 ± 48 min
same,bradykinesia level,"[1]; 10 mg/kg oral, first four hours of observation (1-5 h after administration), P<0.05 cf. vehicle (moderate-marked levels)",mild-moderate levels
same,increase in activity counts cf. vehicle,"[1]; 20 mg/kg oral, 1-2 h period of observation (2-3 h after treatment), P<0.01",63%
same,increase in activity counts cf. vehicle,"[1]; 20 mg/kg oral, 2-3 h period of observation, P<0.05",82%
same,total duration of ON-time (mean),"[1]; 20 mg/kg oral, 6 h observation",1 ± 1 min
same,dyskinesia,"[1]; 1, 10 or 20 mg/kg oral, 6 h observation, listed as Formula (i)",did not evoke dyskinesia; also recorded: All zero values
same,average postural impairment cumulated 0-3 h,"[1]; 1, 10 or 20 mg/kg oral, Friedman P=0.031, post-hoc Dunn's all P>0.05",significant effect of Formula (i) treatment
same,average bradykinesia cumulated 0-3 h,"[1]; 1, 10 or 20 mg/kg oral, Friedman P=0.034, post-hoc Dunn's all P>0.05",significant effect of DPI-289 treatment
same,average bradykinesia cumulated 3-6 h,[1]; [3],no significant effects
same,average parkinsonism cumulated over 0-3 h and 3-6 h,[1]; [3],no significant effect
same,average postural impairment cumulated 3-6 h,[1]; [3],no significant effects
same,average activity cumulated over 0-3 h and 3-6 h,"[1]; 1, 10 or 20 mg/kg oral, cf. vehicle",no significant effect
same,alertness,[1]; [4],no increase in levels of alertness
same,range of movement,[1]; [4],no reduction in levels of impaired range of movement
same,total duration of ON-time cf. vehicle,[1]; [4],no significant increase in total duration of ON-time
same,bioavailability,[2],1 to 2%
